Where two headings read alike, the source gives them in different places.
Key:
[1] = tested on: MDA-MB-231; experiment: 2D cell viability (PrestoBlue resazurin) in MDA-MB-231; type: cell-based, human; details: read-out: Reduction of Cell Viability 24 h IC50; MDA-MB-231 2D monolayer, 24 h post-treatment, mean ± SD
Experimental: Cell viability was determined based on resazurin-reduction in viable cells according to the PrestoBlue^TM Assay. On day 1, MDA-MB-231 (1.5 × 10^4 cells per well or 7.5 × 10^3 cells per well) were seeded into black 96 well plates (Greiner; #655090) in a total volume of 100 µL. On day 2, the compounds or DMSO (Roth; #A994.1) alone at maximal 0.1% were applied (final concentrations after serial dilution shown in Table 3). An amount of 20 µM staurosporine (Sigma-Aldrich; #S5921) served as a positive control. On day 3, the PrestoBlue^TM reagent (Invitrogen^TM, Darmstadt, Germany; #A13262) was applied according to the manufacturer`s instructions. Finally, cell viability-dependent fluorescence was recorded in relative fluorescence units (RFU) with excitation/emission (Exλ/Emλ) at 535/590 nm or 560/590 nm, using the microplate reader Spark® (Tecan).

[2] = tested on: 3D co-culture spheroids of MDA-MB-231 and primary murine CAFs; experiment: 3D cell viability (ATP content) in TNBC co-culture spheroids; type: cell-based, human MDA-MB-231
Experimental: On day 1, 3000 cells were seeded into a low-attachment 96 well plate (Greiner; #650970). […] Cell viability was determined based on the ATP content in viable cells according to the manufacturer`s instructions (Promega #G9682). Co-culture spheroids were generated for 72 h before they were grown for another 72 h with or without exposure to the compounds. […] Cell viability-dependent luminescence was determined as relative light units (RLU) using the microplate reader Spark® (Tecan).

[3] = tested on: NFκB; experiment: NFκB inhibition assay (2 h), NFκB-dependent nanoluc luciferase reporter; type: cell-based, human; details: read-out: NFκB Inhibition 2 h IC50; NFκB-MDA-MB-231-nanoluc cells, 2-h treatment, mean ± SD
Experimental: Experiments were performed according to the published protocol. On day 1, 4 × 10^4 NFκB-MDA-MB-231-nanoluc cells were seeded into white 96 well plates (Greiner; #655098). On day 2, the medium was replaced with starvation medium and the cells were pre-incubated for 20 min with either 100 µL of DMSO (Roth; #A994.1) alone at a concentration of maximal 0.1% or with the final concentration of the diluted compounds (Table 3). To activate NFκB signaling, cells were stimulated with 1 µg/mL LPS (Sigma-Aldrich; #L2630) beforehand. NFκB-dependent luciferase activity was measured according to the manufacturer`s protocol for the Nano-Glo Luciferase Assay System (Promega, Mannheim, Germany; #N1110). NFκB-dependent luminescence was determined as relative light units (RLU) using the microplate reader Spark® (Tecan, Männedorf, Switzerland).

[4] = tested on: NFκB; experiment: NFκB inhibition assay (24 h), NFκB-dependent firefly luciferase reporter; type: cell-based; details: Homo sapiens, 24 h, read-out: NFκB Inhibition 24 h IC50
Experimental: On day 1, 3 × 10^4 NFκB MDA-MB-231-firefly cells were seeded into white 96 well plates (Greiner; #655098). On day 2, the medium was replaced with starvation medium and the cells were pre-incubated for 20 min with either 100 µL of DMSO (Roth; #A994.1) alone at maximal 0.1%, or with the final concentration of the diluted compounds (Table 3). To activate NFκB signaling, cells were stimulated with 20 ng/mL TNFα (Peprotech, Hamburg, Germany; #300-01A). Cell lysis was performed in 20 µL 1× cell lysis buffer according to the manufacturer’s instruction for the Luciferase Assay System (Promega #E1500). NFκB-dependent luminescence was determined as relative light units (RLU) using the microplate reader Spark® (Tecan).

| Compound | IC50 [1] | IC50 ([2]; Mus musculus, MDA-MB-231, 72 h, read-out: Reduction of Cell Viability 72 h IC50, 3D co-culture spheroids, 72 h treatment, mean ± SD (n = 3)) | IC50 [3] | IC50 ([2]; read-out: Reduction of Cell Viability 72 h IC50, 3D co-culture spheroids, 72 h treatment, mean ± SD (n = 3)) | IC50 [4] |
| --- | --- | --- | --- | --- | --- |
| COc1ccc2c3c(c4cc(OC)c(OC)cc4c2c1)CN1CCCC1C3O (stereo not shown) [Compound (1s), O-methyltylophorinidine] | 4.2 ± 1 nM | 11.2 ± 2.1 nM | 3.3 ± 0.2 nM |  |  |
| COc1ccc2c3c(c4cc(OC)c(OC)cc4c2c1)CN1CCCC1C3O (stereo not shown) [Compound (1), O-methyltylophorinidine] | 13.6 ± 0.4 nM |  | 17.1 ± 2 nM | 21.7 ± 2.5 nM | 3.7 ± 1 nM |

Source: PMC9499467, “Phenanthroindolizidine Alkaloids Isolated from Tylophora ovata as Potent Inhibitors of Inflammation, Spheroid Growth, and Invasion of Triple-Negative Breast Cancer” (International Journal of Molecular Sciences, 2022)
